A value given as a limit tells only on which side of the number the result lay.

The subject of the first test is primary murine skeletal myocytes. Briefly: TAG accumulation in primary murine skeletal myocytes. The test is classed as cell-based. Conditions: Mus musculus, read-out: Activity Score (IC50), triacylglyceride (TAG) accumulation.
Usually IC50 stands for the concentration that gives 50% inhibition. For `COc1ccc(-c2csc(NC(=O)c3ccc(OCC(=O)N4CCC(=O)CC4)c(OC)c3)n2)cc1` [Cpd. 12, 3-methoxy-N-(4-(4-methoxyphenyl)thiazol-2-yl)-4-(2-oxo-2-(4-oxopiperidin-1-yl)ethoxy)benzamide], the IC50 was 1 to 10 µM.

The same test, now with this note: Mus musculus; primary murine skeletal myocytes; read-out: Activity Score (IC50), triacylglyceride (TAG) accumulation.
Consider `COc1ccc(-c2csc(NC(=O)c3ccc(O)c(OC)c3)n2)cc1` [Cpd. 1, 4-hydroxy-3-methoxy-N-(4-(4-methoxyphenyl)thiazol-2-yl)benzamide], for which the IC50 was above 10 µM. As to `COc1cc(C(=O)Nc2nc(-c3ccccc3)cs2)ccc1O` [Cpd. 2, 4-hydroxy-3-methoxy-N-(4-phenylthiazol-2-yl)benzamide], the IC50 is above 10 µM. As for `COc1cc(C(=O)Nc2nc(-c3ccc(C)cc3)cs2)ccc1O` [Cpd. 3, 4-hydroxy-3-methoxy-N-(4-(p-tolyl)thiazol-2-yl)benzamide], the IC50 was above 10 µM. On the same count and under the same terms, to `COc1cc(C(=O)Nc2nc(-c3ccc(Cl)cc3)cs2)ccc1O` [Cpd. 4, N-(4-(4-chlorophenyl)thiazol-2-yl)-4-hydroxy-3-methoxybenzamide] belongs 1 to 10 µM; to `COc1cc(C(=O)Nc2nc(-c3ccc(Cl)c(Cl)c3)cs2)ccc1O` [Cpd. 5, N-(4-(3,4-dichlorophenyl)thiazol-2-yl)-4-hydroxy-3-methoxybenzamide], 1 to 10 µM.

Regarding `COc1cc(C(=O)Nc2nc(-c3ccc(C#N)cc3)cs2)ccc1O` [Cpd. 6, N-(4-(4-cyanophenyl)thiazol-2-yl)-4-hydroxy-3-methoxybenzamide], the IC50 fell in the range of 1 to 10 µM. Take `COc1ccc(-c2csc(NC(=O)c3ccc(OCC(=O)N4CCCCC4)c(OC)c3)n2)cc1` [Cpd. 8, 3-methoxy-N-(4-(4-methoxyphenyl)thiazol-2-yl)-4-(2-oxo-2-(piperidin-1-yl)ethoxy)benzamide]: the IC50 is 1 to 10 µM. Consider `COc1ccc(-c2csc(NC(=O)c3ccc(OCC(=O)N4CCN(C)CC4)c(OC)c3)n2)cc1` [Cpd. 9, 3-methoxy-N-(4-(4-methoxyphenyl)thiazol-2-yl)-4-(2-(4-methylpiperazin-1-yl)-2-oxoethoxy)benzamide], for which the IC50 was below 1 µM. Still for that read-out and setting: the figure for `COc1ccc(-c2csc(NC(=O)c3ccc(OCC(=O)NCC4CC4)c(OC)c3)n2)cc1` [Cpd. 10, 4-(2-((cyclopropylmethyl)amino)-2-oxoethoxy)-3-methoxy-N-(4-(4-methoxyphenyl)thiazol-2-yl)benzamide] is 1 to 10 µM. Still for that read-out and setting: the figure for `COc1ccc(-c2csc(NC(=O)c3ccc(OCC(=O)N4CCSCC4)c(OC)c3)n2)cc1` [Cpd. 11, 3-methoxy-N-(4-(4-methoxyphenyl)thiazol-2-yl)-4-(2-oxo-2-thiomorpholinoethoxy)benzamide] is below 1 µM; for `COc1ccc(-c2csc(NC(=O)c3ccc(OCC(=O)N4CCN(S(C)(=O)=O)CC4)c(OC)c3)n2)cc1` [Cpd. 13, 3-methoxy-N-(4-(4-methoxyphenyl)thiazol-2-yl)-4-(2-(4-(methylsulfonyl)piperazin-1-yl)-2-oxoethoxy)benzamide] it is above 10 µM. Take `COc1ccc(-c2csc(NC(=O)c3ccc(OCC(=O)NCCN4CCCCC4)c(OC)c3)n2)cc1` [Cpd. 14, 3-methoxy-N-(4-(4-methoxyphenyl)thiazol-2-yl)-4-(2-oxo-2-((2-(piperidin-1-yl)ethyl)amino)ethoxy)benzamide]: the half-maximal inhibitory concentration (IC50) was in the range of 1 to 10 µM. `CCN(CCN(C)C)C(=O)COc1ccc(C(=O)Nc2nc(-c3ccc(OC)cc3)cs2)cc1OC` [Cpd. 15, 4-(2-((2-(dimethylamino)ethyl)(ethyl)amino)-2-oxoethoxy)-3-methoxy-N-(4-(4-methoxyphenyl)thiazol-2-yl)benzamide]: the IC50 is above 10 µM. `COC(=O)CNC(=O)COc1ccc(C(=O)Nc2nc(-c3ccc(OC)cc3)cs2)cc1OC` [Cpd. 16, Methyl (2-(2-methoxy-4-((4-(4-methoxyphenyl)thiazol-2-yl)carbamoyl)phenoxy)acetyl)glycinate]: the IC50 was above 10 µM.

With `COc1ccc(-c2csc(NC(=O)c3ccc(OCC(N)=O)c(OC)c3)n2)cc1` [Cpd. 17, 4-(2-amino-2-oxoethoxy)-3-methoxy-N-(4-(4-methoxyphenyl)thiazol-2-yl)benzamide], the IC50 was 1 to 10 µM.

Consider `CNC(=O)COc1ccc(C(=O)Nc2nc(-c3ccc(OC)cc3)cs2)cc1OC` [Cpd. 18, 3-methoxy-N-(4-(4-methoxyphenyl)thiazol-2-yl)-4-(2-(methylamino)-2-oxoethoxy)benzamide], for which the IC50 is below 1 µM. Take `COc1ccc(-c2csc(NC(=O)c3ccc(OCC(=O)N(C)C)c(OC)c3)n2)cc1` [Cpd. 19, 4-(2-(dimethylamino)-2-oxoethoxy)-3-methoxy-N-(4-(4-methoxyphenyl)thiazol-2-yl)benzamide]: the concentration for half-maximal inhibition (IC50) was in the range of 1 to 10 µM.

As to `COCCNC(=O)COc1ccc(C(=O)Nc2nc(-c3ccc(OC)cc3)cs2)cc1OC` [Cpd. 20, 3-methoxy-4-(2-((2-methoxyethyl)amino)-2-oxoethoxy)-N-(4-(4-methoxyphenyl)thiazol-2-yl)benzamide], the IC50 was in the range of 1 to 10 µM.

Regarding `COCCCNC(=O)COc1ccc(C(=O)Nc2nc(-c3ccc(OC)cc3)cs2)cc1OC` [Cpd. 21, 3-methoxy-N-(4-(4-methoxyphenyl)thiazol-2-yl)-4-(2-((3-methoxypropyl)amino)-2-oxoethoxy)benzamide], the half-inhibitory concentration (IC50) is 1 to 10 µM. For `COc1ccc(-c2csc(NC(=O)c3ccc(OCC(=O)NC4CCC4)c(OC)c3)n2)cc1` [Cpd. 22, 4-(2-(cyclobutylamino)-2-oxoethoxy)-3-methoxy-N-(4-(4-methoxyphenyl)thiazol-2-yl)benzamide], the IC50 is below 1 µM.

`COc1ccc(-c2csc(NC(=O)c3ccc(OCC(=O)NCc4ccccc4)c(OC)c3)n2)cc1` [Cpd. 23, 4-(2-(benzylamino)-2-oxoethoxy)-3-methoxy-N-(4-(4-methoxyphenyl)thiazol-2-yl)benzamide]: the IC50 was in the range of 1 to 10 µM. Consider `COc1ccc(-c2csc(NC(=O)c3ccc(OCC(=O)NCc4ccccn4)c(OC)c3)n2)cc1` [Cpd. 24, 3-methoxy-N-(4-(4-methoxyphenyl)thiazol-2-yl)-4-(2-oxo-2-((pyridin-2-ylmethyl)amino)ethoxy) Benzamide], for which the IC50 is above 10 µM. Regarding `COc1cc(C(=O)Nc2nc(-c3ccccc3)cs2)ccc1OCC(=O)N1CCOCC1` [Cpd. 25, 3-methoxy-4-(2-morpholino-2-oxoethoxy)-N-(4-phenylthiazol-2-yl)benzamide], the IC50 was below 1 µM. Consider `COc1cc(C(=O)Nc2nc(-c3ccc(OC(F)(F)F)cc3)cs2)ccc1OCC(=O)N1CCOCC1` [Cpd. 26, 3-methoxy-4-(2-morpholino-2-oxoethoxy)-N-(4-(4-(trifluoromethoxy)phenyl)thiazol-2-yl)benzamide], for which the IC50 is below 1 µM. On the same count and under the same terms, the figure for `COc1cc(C(=O)Nc2nc(-c3ccc(O)cc3)cs2)ccc1OCC(=O)N1CCOCC1` [Cpd. 27, N-(4-(4-hydroxyphenyl)thiazol-2-yl)-3-methoxy-4-(2-morpholino-2-oxoethoxy)benzamide] is below 1 µM; for `CCOc1ccc(-c2csc(NC(=O)c3ccc(OCC(=O)N4CCOCC4)c(OC)c3)n2)cc1` [Cpd. 28, N-(4-(4-ethoxyphenyl)thiazol-2-yl)-3-methoxy-4-(2-morpholino-2-oxoethoxy)benzamide] it is below 1 µM; for `COc1cc(C(=O)Nc2nc(-c3ccc(OC(C)C)cc3)cs2)ccc1OCC(=O)N1CCOCC1` [Cpd. 29, N-(4-(4-isopropoxyphenyl)thiazol-2-yl)-3-methoxy-4-(2-morpholino-2-oxoethoxy)benzamide] it is below 1 µM. The same measure, in the same setting: the figure for `COc1cc(C(=O)Nc2nc(-c3ccc(C)cc3)cs2)ccc1OCC(=O)N1CCOCC1` [Cpd. 30, 3-methoxy-4-(2-morpholino-2-oxoethoxy)-N-(4-(p-tolyl)thiazol-2-yl)benzamide] is below 1 µM; for `COc1cc(C(=O)Nc2nc(-c3ccc(Cl)cc3)cs2)ccc1OCC(=O)N1CCOCC1` [Cpd. 31, N-(4-(4-chlorophenyl)thiazol-2-yl)-3-methoxy-4-(2-morpholino-2-oxoethoxy)benzamide] it is below 1 µM; for `COc1cc(C(=O)Nc2nc(-c3ccc(C#N)cc3)cs2)ccc1OCC(=O)N1CCOCC1` [Cpd. 32, N-(4-(4-cyanophenyl)thiazol-2-yl)-3-methoxy-4-(2-morpholino-2-oxoethoxy)benzamide] it is below 1 µM.

`COc1cc(C(=O)Nc2nc(-c3ccc([N+](=O)[O-])cc3)cs2)ccc1OCC(=O)N1CCOCC1` [Cpd. 33, 3-methoxy-4-(2-morpholino-2-oxoethoxy)-N-(4-(4-nitrophenyl)thiazol-2-yl)benzamide]: the IC50 was below 1 µM. `COc1cc(C(=O)Nc2nc(-c3ccc(N4CCCC4)cc3)cs2)ccc1OCC(=O)N1CCOCC1` [Cpd. 34, 3-methoxy-4-(2-morpholino-2-oxoethoxy)-N-(4-(4-(pyrrolidin-1-yl)phenyl)thiazol-2-yl)benzamide]: the IC50 was below 1 µM. Still for that read-out and setting: to `COc1cccc(-c2csc(NC(=O)c3ccc(OCC(=O)N4CCOCC4)c(OC)c3)n2)c1` [Cpd. 35, 3-methoxy-N-(4-(3-methoxyphenyl)thiazol-2-yl)-4-(2-morpholino-2-oxoethoxy)benzamide] belongs 1 to 10 µM; to `COc1ccc(-c2csc(NC(=O)c3ccc(OCC(=O)N4CCOCC4)c(OC)c3)n2)c(OC)c1` [Cpd. 36, N-(4-(2,4-dimethoxyphenyl)thiazol-2-yl)-3-methoxy-4-(2-morpholino-2-oxoethoxy)benzamide], below 1 µM; to `COc1cc(C(=O)Nc2nc(-c3ccc(Cl)c(Cl)c3)cs2)ccc1OCC(=O)N1CCOCC1` [Cpd. 37, N-(4-(3,4-dichlorophenyl)thiazol-2-yl)-3-methoxy-4-(2-morpholino-2-oxoethoxy)benzamide], below 1 µM. For the compound `COc1ccc(-c2csc(NC(=O)c3ccc(OCC(=O)N4CCOCC4)c(OC)c3)n2)cc1OC` [Cpd. 38, N-(4-(3,4-dimethoxyphenyl)thiazol-2-yl)-3-methoxy-4-(2-morpholino-2-oxoethoxy)benzamide], the half-maximal inhibitory concentration (IC50) lay in the range of 1 to 10 µM. Regarding `COc1cc(C(=O)Nc2nc(-c3ccc4c(c3)OCO4)cs2)ccc1OCC(=O)N1CCOCC1` [Cpd. 39, N-(4-(benzo[d][1,3]dioxol-5-yl)thiazol-2-yl)-3-methoxy-4-(2-morpholino-2-oxoethoxy)benzamide], the IC50 was 1 to 10 µM.

(Values after patent US11028061B2, “Modulators of myocyte lipid accumulation and insulin resistance and methods of use thereof” (Sanford Burnham Prebys Medical Discovery Institute, priority 2015, dated 2021).)
